# In PMC5609913, “Structure based design, synthesis and activity studies of small hybrid molecules as HDAC and G9a dual inhibitors” (Oncotarget, 2017):
# Like-named read-outs stand apart in the source and are kept apart here.
# Tests used:
# MDA-MB-231 cells = assay: Cell anti-proliferation / toxicity assay (CCK-8), MDA-MB-231; type: cell-based
# Protocol: Initial tests designed around assessing whether a synergistic effect would be observed in real when a combination of G9a inhibitor and HDAC inhibitor used in conjunction.
# Cell anti-proliferation assays were performed to determine the toxicity of these inhibitors. Several cell lines (MDA-MB-231, MCF-7 and A549) were incubated and then treated with varying concentrations of the inhibitors for 72 h, respectively. […] These compounds were further evaluated against the control cell line HEK293 to test their toxicity with a non-cancerous cell line.
# A549, MDA-MB-231, MCF-7 and HEK293 cells were seeded at 8000-10000 cells (100 μl) in white 96-well plates and pre-incubate the plate for 24 h under standard cell culture conditions, respectively. And then the cells were exposed to the different inhibitors with various concentrations for 72 h. Finally, 10 μl of CCK-8 kit solution was added to each well and incubated for 3-4 hours under standard cell culture conditions, and the 96 well plates were measured the absorbance at 450 nm using Perkin–Elmer Wallac Victor ^3V 1420 multi label plate reader (Perkin–Elmer, Wellesley, USA). EC50s were calculated using GraphPad Prizm statistical package with sigmoidal variable slope dose response curve fit.
# MCF-7 cells = assay: Cell anti-proliferation / toxicity assay (CCK-8), MCF-7; type: cell-based
# Protocol: (§1) Cell anti-proliferation assays were performed to determine the toxicity of these inhibitors. […] These compounds were further evaluated against the control cell line HEK293 to test their toxicity with a non-cancerous cell line.
# (§2) And then the cells were exposed to the different inhibitors with various concentrations for 72 h. […] EC50s were calculated using GraphPad Prizm statistical package with sigmoidal variable slope dose response curve fit.
# [1] = target: T1, Mouse histone methyltransferase G9a (969-1263) (Mus musculus, UniProt Q9Z148); assay: MALDI-TOF methylation study of G9a enzymatic activity (H3 peptide, SAM); type: biochemical; settings: Supplementary Table 1; inhibitor 5 μM, 30 min; average of 3 values
# T1 construct: The 6His-sumo mG9a (969-1263) protein was purified using the following procedure; 6His-sumo (N, cleaved yes); made in house; host or cells: Escherichia coli BL21 (DE3)
# T1 sequence (Q9Z148 969-1263): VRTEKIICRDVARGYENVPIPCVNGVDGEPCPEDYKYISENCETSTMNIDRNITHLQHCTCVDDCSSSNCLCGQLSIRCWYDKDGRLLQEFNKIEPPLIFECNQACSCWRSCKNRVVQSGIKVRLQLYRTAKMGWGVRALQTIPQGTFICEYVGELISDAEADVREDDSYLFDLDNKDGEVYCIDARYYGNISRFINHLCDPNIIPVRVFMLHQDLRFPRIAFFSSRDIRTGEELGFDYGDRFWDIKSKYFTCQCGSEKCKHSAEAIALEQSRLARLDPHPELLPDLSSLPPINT
# Protocol: Figure 3 compounds were synthesized from the commercially available starting material 1. An initial displacement reaction using a primary amine was used to introduce the C4 selective substitution, with the second displacement to introduce the linker at the C2 position following the microwave assisted reaction previously reported. Boc-protected ethylene diamine was treated with compound 2 at 160°C in a microwave for 10 min to yield product 3 with excellent yield. Afterward, the amine 3 was deprotected with TFA/DCM, and the free amine was treated with corresponding monomethyl esters (carbon chain 2-6) in the presence of coupling reagent EDCI and HOBt for about 8 hours to produce mono methyl ester substituted at the C2 position. The ester compounds further treated with hydroxylamine in water to get the corresponding hydroxamic acid derivatives, which were purified using reverse phase flash chromatography to obtain compounds 4-7 and 4a-7a in good yield. Synthesis of compounds in Figure 4 requires the C6 demethoxy core, and this was synthesized according to the reported procedure to yield 10 [45]. […] Compounds with the HDAC pharmacophore at the C4 position (Figure 2B) were synthesized from the starting material 1. […] A parallel synthesis and testing strategy were used in establishing the primary SAR, with the clear rationalization of the structure and activity at each stage we could reduce the synthetic targets. Initially, we evaluated the G9a potential after the introduction of HDAC pharmacophore. A biochemical assay using MALDI-TOF was used to visualize the effects of the synthesized compounds on G9a enzymatic activity, we carried out a biochemical reaction involving target enzyme G9a, methyl donor SAM and substrate H3 peptide at a concentration of 400 nM, 10 μM and 5 μM respectively.
# Mouse histone methyltransferase G9a (969-1263) cDNA was amplified from the cDNA of BALB/c mouse thymus, and the fragment was sub-cloned into a vector with a 6His-sumo tag. The mouse G9a (mG9a) was expressed in Escherichia coli BL21 (DE3) by the addition of 1 mM isopropyl-1-thio-D-galactopyranoside (IPTG) and incubated overnight at 16°C.
# The in vitro inhibition of G9a by the synthesized compounds were measured by MALDI-TOF mass spectrum (Bruker MALDI TOF/TOF Analyzer). 400 nM purified G9a, 5 μM synthesized histone H3 (1-21) and 10 μM non-radioactive S-adenosyl methionine (Sigma) were added in reaction buffer (50 mM HEPES pH 8.0, 5 μg/ml BSA and 0.1% β-Mercaptoethanol) with or without inhibitors (5 μM). The reaction was incubated at room temperature for 30 min, and stopped by TFA. 1 μl of the sample was mixed with CHCA matrix and m/z peaks were obtained at reflection positive mode. The results of mass spectrum were analyzed using the Bruker flex analysis software, a detailed description of data processing is provided as supplementary information (S3).
# […]
# MALDI spectrums were collected using Bruker flex % conversion to product is also C, from this to get the control software and analyzed by flex analysis. After %maximal activity (%MA), C was compared to the % labelling each cluster peaks of H3K9Me0, H3K9Me1 conversion when no inhibitor was used (D). and H3K9Me2 for all of the tested concentrations, area Finally % inhibition was found by subtracting under the cluster (AUC) were extracted by using the same %MA from 100 […]
# flex analysis software. % abundance of each peak was Example: % methylation levels and % inhibition calculated by following formula, when used 5 μM compound 14
# A = % Abundance of (H3K9Me0) = area of A = 13.09
# B = % Abundance of (H3K9Me1) = area of % conversion when no inhibitor was used D = 84.43 H3K9Me1/ (area of H3K9Me0+area of H3K9Me1 + area (average of six measurements) […]
# A549 cells = assay: Cell anti-proliferation / toxicity assay (CCK-8), A549; type: cell-based; settings: Homo sapiens, Table 6, 72 h, >100 = not reached at highest tested concentration (100 μM)
# Protocol: as §1, §2
# HEK293 cells = assay: Cell anti-proliferation / toxicity assay (CCK-8), HEK293 normal cell line; type: cell-based; settings: Homo sapiens, Table 6, 72 h
# Protocol: as §1, §2
# HDAC [2] = assay: Homogeneous cellular histone deacetylase assay, K562; type: cell-based, human; settings: Supplementary Table 2; NA = not active up to highest concentration tested (100 μM); >100 = IC50 not reached at 100 μM; read-out: IC50-HDAC K562
# Protocol: (§3) The enzymatic activity of HDAC was measured in intact cells using the homogeneous cellular assay method. A cell-permeable peptide Boc-K(Ac)-AMC used as the HDAC substrate, after deacetylation it is cleaved by trypsin to release the fluorescent 7-amino-4-methylcoumarin (AMC) and further quantified.
# (§4) The manual assay was developed by Thomas's group. […] After 24 h, 9 μl inhibitors with different concentration were added to the HeLa cells and incubation was continued for 3 h under cell culture conditions. After this treatment period, 10 μl of a 2 mM stock solution of the substrate Boc-K(Ac)-AMC was added into the 96 well plates with Hela cells and inhibitors. […] A549 and K562 cell lines used the same method, respectively. IC50s were calculated using GraphPad Prizm statistical package with sigmoidal variable slope dose response curve fit.
# HDAC [3] = assay: Homogeneous cellular histone deacetylase assay, Hela; type: cell-based, human; settings: Supplementary Table 2; NA = not active up to highest concentration tested (100 μM); >100 = IC50 not reached at 100 μM; read-out: IC50-HDAC Hela
# Protocol: as §3, §4
# HDAC [4] = assay: Homogeneous cellular histone deacetylase assay, A549; type: cell-based, human; settings: Supplementary Table 2; NA = not active up to highest concentration tested (100 μM); >100 = IC50 not reached at 100 μM
# Protocol: as §3, §4
# [5] = Homo sapiens, MDA-MB-231, Supplementary Table 4, 72 h, CCK-8, >100 = not reached at 100 μM, read-out: EC50 MDA-MB-231
# [6] = Homo sapiens, MCF7, Supplementary Table 4, 72 h, CCK-8, >100 = not reached at 100 μM, read-out: EC50 MCF-7
# [7] = Homo sapiens, MDA-MB-231, Table 6, 72 h, CCK-8, mean ± SD of triplicates, read-out: EC50 MDA-MB-231
# [8] = Homo sapiens, MDA-MB-231, read-out: EC50, MDA-MB-231 (combination study)
inhibition at 5 µM [1] [%],Structure (SMILES),EC50 (MDA-MB-231 cells; [5]) [µM],EC50 (MCF-7 cells; [6]) [µM],further results
50.6 ± 16.5,"COc1cc2nc(NCCNC(=O)CCCCC(=O)NO)nc(NC3CCN(C(C)C)CC3)c2cc1OC [Compound 6a, N1-hydroxy-N6-(2-((4-((1-isopropylpiperidin-4-yl)amino)-6,7-dimethoxyquinazolin-2-yl)amino)ethyl)adipamide]",> 100,> 100,–
–,"COc1cc2c(NC3CCN(C(C)C)CC3)nc(N3CCCN(C)CC3)nc2cc1OCCCCCCC(=O)NO [Compound 26, N-hydroxy-7-((4-((1-isopropylpiperidin-4-yl)amino)-6-methoxy-2-(4-methyl-1,4-diazepan-1-yl)quinazolin-7-yl)oxy)heptanamide]",31.3 ± 3.3,> 100,–
65 ± 1.95,"COc1cc2nc(NCCNC(=O)CCCCCC(=O)NO)nc(NC3CCN(C)CC3)c2cc1OC [Compound 5, N1-(2-((6,7-dimethoxy-4-((1-methylpiperidin-4-yl)amino)quinazolin-2-yl)amino)ethyl)-N7-hydroxyheptanediamide]",> 100,> 100,–
26.6 ± 11.3,"COc1cc2nc(NCCNC(=O)CCCCC(=O)NO)nc(NC3CCN(C)CC3)c2cc1OC [Compound 6, N1-(2-((6,7-dimethoxy-4-((1-methylpiperidin-4-yl)amino)quinazolin-2-yl)amino)ethyl)-N6-hydroxyadipamide]",> 100,> 100,–
–,"CN1CCCN(c2nc(NC3CCN(Cc4ccccc4)CC3)c3ccc(OCCCCCCCC(=O)NO)cc3n2)CC1 [Compound 30, 8-((4-((1-benzylpiperidin-4-yl)amino)-2-(4-methyl-1,4-diazepan-1-yl)quinazolin-7-yl)oxy)-N-hydroxyoctanamide]",–,–,"EC50 (MDA-MB-231 cells; Supplementary Table 4, 72 h, CCK-8, >100 = not reached at 100 μM, read-out: EC50 MDA-MB-231): 24 ± 3.64 µM; EC50 (MCF-7 cells; Supplementary Table 4, 72 h, CCK-8, >100 = not reached at 100 μM, read-out: EC50 MCF-7): > 100 µM"
77.7 ± 5.73,"COc1cc2nc(N3CCCN(C)CC3)nc(NC3CCN(Cc4ccccc4)CC3)c2cc1OC [BIX-01294, reference compound]",–,–,"EC50 (MDA-MB-231 cells; [7]): 2.16 ± 0.88 µM; EC50 (MDA-MB-231 cells; [8]): 2.16 ± 0.88 µM; EC50 (MCF-7 cells; Homo sapiens, MCF7, Table 6, 72 h, CCK-8, mean ± SD of triplicates, read-out: EC50 MCF-7): 8.1 ± 1.99 µM; EC50 (MCF-7 cells; Homo sapiens, MCF7, read-out: EC50, MCF-7 (combination study)): 8.1 ± 1.99 µM; EC50 (A549 cells): 21.7 ± 2.73 µM; EC50 (HEK293 cells): 2.05 ± 0.98 µM"
22.8 ± 26.7,"COc1ccc2c(NCCNC(=O)CCCCCCC(=O)NO)nc(N3CCCN(C)CC3)nc2c1 [Compound 21, N1-hydroxy-N8-(2-((7-methoxy-2-(4-methyl-1,4-diazepan-1-yl)quinazolin-4 yl)amino)ethyl)octanediamide]",> 100,> 100,IC50 (HDAC [2]): > 100 µM; IC50 (HDAC [3]): > 100 µM; IC50 (HDAC [4]): > 100 µM
–,"O=C(CCCCCCC(=O)Nc1ccccc1)NO [SAHA, reference compound]",–,–,EC50 (MDA-MB-231 cells; [7]): 2.87 ± 0.84 µM; EC50 (MDA-MB-231 cells; [8]): 2.87 ± 0.84 µM
